What was measured:
[1] = tested on: WNT/CTNNB1 pathway (LEF/TCF transcription factor reporter); experiment: WNT/CTNNB1 pathway activity reporter assay (TOP/FOPflash); type: cell-based, human; settings: 24 h
From the text: The lymphoid enhancer-binding factor 1 (LEF)/transcription factor (TCF) activity reporter assay, also known as TOP/FOPflash assay (Promega, Madison, Wis.) was previously used to analyze the WNT/CTNNB1 pathway activity in human colon cancer cells (24). It comprises the TOPflash plasmid which contains a hexameric repetition of the LEF/TCF-binding element upstream of a thymidine kinase (TK) promoter and firefly luciferase as reporter gene. The FOPflash plasmid comprised the exact sequence of the TOPflash plasmid, but with point mutated LEF/TCF-binding sites. In the assay, 8×10^4 HCT116 cells were plated in 24-well-plates and were given 15 hours to attach to the bottom of the well. Cells were transfected with TOPflash or FOPflash plasmids using Metafecten according to the manufacturer's instruction 24 hours before they were treated with 1 μM niclosamide or the respective amount of DMSO for another 24 hours. Luciferase activity as read out for LEF/TCF activity and thus WNT/CTNNB1 pathway activity was measured by the Steady Glow™ Luciferase Assay System (Promega) according to the manufacturer's instructions in the luminescence reader SpectraFluor Plus (Tecan) with 1500 milliseconds exposure time and a gain of 150. TOPflash reporter gene expression (representing the WNT pathway activity) was normalized to FOPflash reporter gene expression (representing basal reporter gene expression and transfection efficiency). The average of three independent experiments is given here, whereas each experiment was performed in duplicate.
For WNT pathway analysis the following cells were applied: HCT116 cells (heterozygous for gain-of-function-mutated CTNNB1; wt/mut), HAB-68mut cells (deletion mutant of HCT116, expressing only gain-of-function-mutated CTNNB1: −/mut) and HAB-92 wt cells (deletion mutant of HCT116, expressing only wild-type CTNNB1: wt/−). (A) CTNNB1 genotype dependent effect of niclosamide on LEF/TCF transcription factor reporter gene expression. Cells were treated with 1 μM niclosamide for 24 hours. Reporter gene expression was determined by luciferase activity measurement. For each condition and cell line TOPflash expression was normalized to FOPflash expression. (B) CTNNB1 genotype dependent effect of niclosamide on S100A4 expression. Cells were treated with 1 μM niclosamide for 24 hours. S100A4 expression was analyzed by qRT-PCR and immunoblot. (C) CTNNB1 genotype dependent effect of niclosamide on migration rates. Cells were treated with 1 μM niclosamide for 24 hours and cell migration was determined by Boyden chamber assay. Data represents mean±SE of at least three independent experiments. Differences were analyzed by Student's t test (n.s.; not statistically significant). (D) Nuclear localization of CTNNB1 under niclosamide treatment. Nuclear extracts of HCT116 cells treated with the indicated concentrations of niclosamide for 18 hours were analyzed by immunoblot. (E) Effect of niclosamide on CTNNB1/TCF complex. Nuclear extracts of HCT116 cells treated with the indicated concentrations of niclosamide for 18 hours were analyzed by EMSA for the TCF-binding site of the S100A4 promoter. Supershift was performed by addition of a monoclonal anti-CTNNB1 antibody. (F) Presence of CTNNB1 on the S100A4 promoter under niclosamide treatment. HCT116 cells were treated with 1 μM niclosamide for 18 hours and processed for ChIP assay. Soluble chromatin was immunoprecipitated with a monoclonal anti-CTNNB1 antibody or a nonspecific control IgG antibody. Primers used in PCR amplified a 167 bp fragment of the S100A4 promoter or 149 bp fragment of the FOS promoter. The input verified the integrity of the PCR. […] Data shown are representatives of at least two independent experiments.

[2] = mice chronically fed 200 mg/kg, two years observation time; cited from earlier work

O=C(Nc1ccc([N+](=O)[O-])cc1Cl)c1cc(Cl)ccc1O [niclosamide, 2′,5-dichloro-4′-nitrosalicylanilide]
WNT pathway activity, mean difference control vs niclosamide ([1]; HAB-68mut, 1 μM): 0.90
WNT pathway activity (TOPflash normalized to FOPflash), mean ([1]; HAB-68mut, 1 μM, control 1.39): 0.50
WNT pathway activity, mean difference control vs niclosamide ([1]; HAB-92 wt, 1 μM): 0.15
WNT pathway activity (TOPflash normalized to FOPflash), mean ([1]; HAB-92 wt, 1 μM, control 0.36): 0.21
WNT pathway activity, mean difference control vs niclosamide ([1]; HCT116, 1 μM): 0.61
WNT pathway activity (TOPflash normalized to FOPflash), mean ([1]; HCT116, 1 μM, control 1.00): 0.39
adverse effects [2]: no adverse effects

From patent publication US11331290B2, “Niclosamide for the treatment of cancer metastasis” (Max-Delbrück-Centrum für Molekulare Medizin in der …, priority 2011, dated 2022)
